Our source for the Kd values is PubChem BioAssay AID1549 (Sanford-Burnham Center for Chemical Genomics, 2009).

Calls of active or inactive are those of the source. How the calls were made is not given here.

For this experiment, the target named is Influenza A virus M2 proton channel (A/TW/4845/1999 H1N1). In words: NMR binding screen, influenza A virus M2 proton channel, Kd (AID 1549). As to conditions: M2 protein.
`CC(=O)O[C@@H]1CC2C(C)(CC[C@H](O)C2(C)C)C2CC[C@]3(C)C(=CC(=O)O[C@H]3c3ccoc3)C21C` (stereo partly specified): the Kd was > 4 mM (inactive).
For `O=c1ccc2c([nH]1)CCCC2`, the Kd was > 4 mM (inactive).
For `Cn1ccc(NC(=S)NC2CCCC2)n1`, the Kd was > 4 mM (inactive).
In the case of `Cc1ccc(SCc2nc(-c3cccnc3)no2)cc1` it was > 4 mM (inactive).
In the case of `NC(N)=NCCCCN=C(N)N` it was > 4 mM (inactive); in that of `O=C(O)CSCC(=O)Nc1cccc(O)c1`, > 4 mM (inactive); in that of `Cc1cc(C(=O)Nc2ccc3c(c2)OCO3)cs1`, > 4 mM (inactive).
In the case of `O=S(=O)(N1CCOCC1)n1nnc2ccccc21` it was > 4 mM (inactive); in that of `OCc1c[nH]c2ccccc12`, > 4 mM (inactive).
Take `CC(=O)O[C@H]1CC[C@@]2(C)C(CC[C@]3(C)C2CC=C2C4CC(C)(C)CC[C@]4(C)CC[C@]23C)C1(C)C` (stereo partly specified): the Kd is > 4 mM (inactive).
In the case of `COc1ccc(NC(=O)CSc2nccc(=O)[nH]2)cc1` it was > 4 mM (inactive).
With `Cc1nc2ccccc2c(=O)n1CCCn1ccnc1`, the Kd was > 4 mM (inactive).
Regarding `C[C@@H]1OC(O[C@H]2[C@H](OC(=O)[C@]34CCC(C)(C)CC3C3=CCC5[C@@]6(C)CC[C@H](OC7O[C@@H](C)[C@H](O[C@@H]8OC[C@@H](O)[C@H](O)[C@H]8O)[C@@H](O)[C@H]7O)C(C)(C)C6CC[C@@]5(C)[C@]3(C)CC4O)OC[C@H](O)[C@H]2O)[C@H](O)[C@H](O)[C@H]1O[C@@H]1O[C@H](CO)[C@@H](O)[C@H](O)[C@H]1O` (stereo partly specified), the Kd was > 4 mM (inactive).
In the case of `CC1CN(C2=NCCN2)CC(C)O1` (stereo unspecified) it was > 4 mM (inactive); in that of `NC(=O)c1ccc(C(N)=O)c(-c2ccccc2)c1`, > 4 mM (inactive).
Under `CCNS(=O)(=O)c1cc(Br)ccc1OC` stands > 4 mM (inactive); under `NC1=NC(=O)C(CC(=O)Nc2ccccc2F)S1` (stereo unspecified), > 4 mM (inactive); under `CC[C@@]1(O)C[C@H](O)c2c(cc3c(c2O)C(=O)c2c(O)ccc(O)c2C3=O)[C@H]1C(=O)OC`, > 4 mM (inactive).
Turning to `Nc1ccc(O)cn1`, the Kd is > 4 mM (inactive).
Under `O=C(O)C(Cc1cnc[nH]1)N1C(=O)c2ccccc2C1=O` (stereo unspecified) stands > 4 mM (inactive); under `CCC(C)C(=O)O[C@@H]1C[C@@]2(C)[C@H](c3ccoc3)OC(=O)CC23OC2(C)O[C@]14[C@]1(C)[C@@H](CC(=O)OC)C5(C)CC1(O)[C@](O)(C5OC(=O)C1(C)OC1C)[C@@H](OC(C)=O)[C@]34O2` (stereo partly specified), > 4 mM (inactive); under `COc1ccccc1NC(=O)c1snnc1C`, > 4 mM (inactive).
`NCc1ccc(-n2cccc2)cc1`: the Kd was > 4 mM (inactive).
Under `COc1ccc(-c2coc3cc(O)ccc3c2=O)cc1` stands > 4 mM (inactive); under `CN(C)N1C(=O)c2ccccc2C1=O`, > 4 mM (inactive).
Under `CC(=O)OC[C@@]1(O)C[C@@]23CCC4c5ccoc5CC[C@]4(C)C2CC[C@@H]1C3` (stereo partly specified) stands > 4 mM (inactive); under `O=C(Nc1nncs1)c1c(F)c(F)c(F)c(F)c1F`, > 4 mM (inactive); under `Cn1nc(C(=O)NCc2cccnc2)c2ccccc2c1=O`, > 4 mM (inactive).
As for `O=C1C2C3C=CC(C3)C2C(=O)N1c1cccnc1` (stereo unspecified), the Kd was > 4 mM (inactive).
As to `COc1cc2c(cc1O)CCNC2C` (stereo unspecified), the Kd is > 4 mM (inactive).
`CC(=O)CC1(O)C(=O)Nc2ccc(Br)cc21` (stereo unspecified): the Kd was > 4 mM (inactive).
Turning to `CC1(C)N([O-])c2cc([N+](=O)[O-])ccc2[N+]1=O`, the Kd is > 4 mM (inactive).
In the case of `Fc1cccc(Cl)c1CN1CCNCC1` it was > 4 mM (inactive).
On to `O=C(O)c1ccc2ccccc2n1`, for which the Kd is > 4 mM (inactive).
Regarding `CC(=O)NN1C(=O)c2cccc3cccc(c23)C1=O`, the Kd was > 4 mM (inactive).
In the case of `O=C1C=CC(=O)c2c(O)cccc21` it was > 4 mM (inactive); in that of `NC(=O)C1CCN(C(=O)CN2CCc3ccccc32)CC1`, > 4 mM (inactive).
Under `Cc1nn2c(nc1=O)SCC2(O)c1ccccc1` (stereo unspecified) stands > 4 mM (inactive).
For `O=C(Nc1nncs1)C1(c2ccccc2)CCCC1`, the Kd was > 4 mM (inactive).
Under `Cc1nnc(-n2cnc3ccccc32)c2ccccc12` stands > 4 mM (inactive); under `C[C@@H]1O[C@@H](O[C@H]2[C@@H](Oc3cc(O)c4c(c3)O[C@H](c3ccc(O)cc3)CC4=O)O[C@H](CO)[C@@H](O)[C@@H]2O)[C@H](O)[C@H](O)[C@H]1O`, > 4 mM (inactive); under `COc1cccc(O)c1O`, > 4 mM (inactive).
Under `O=C(O)c1ccc2snnc2c1` stands > 4 mM (inactive); under `Nc1ccc(Cc2ccc(N)cc2)cc1`, > 4 mM (inactive); under `Cc1nc(-c2ccc(NS(C)(=O)=O)cc2)cs1`, > 4 mM (inactive).
In the case of `CNC(=S)Nc1ccc(OC)cc1C` it was > 4 mM (inactive); in that of `CC1=C(/C=C/C(C)=C/C=C/C(C)=C/C=C/C=C(C)/C=C/C=C(C)/C=C/C2=C(C)CCCC2(C)C)C(C)(C)CCC1`, > 4 mM (inactive).
As for `Cc1occc1C(=O)Nc1nccs1`, the Kd was > 4 mM (inactive).
Regarding `Cc1cc(=O)[nH]c(N)n1`, the Kd is > 4 mM (inactive).
As to `CC(=O)O[C@H]1C(=O)[C@@]2(C)C([C@H](OC(=O)c3ccccc3)[C@]3(O)C[C@H](OC(=O)[C@H](O)[C@@H](NC(=O)c4ccccc4)c4ccccc4)C(C)=C1C3(C)C)[C@]1(OC(C)=O)CO[C@@H]1C[C@@H]2O` (stereo partly specified), the Kd is > 4 mM (inactive).
On to `CSc1ccc(C2NC(=O)CCC2[N+](=O)[O-])cc1` (stereo unspecified), for which the Kd is > 4 mM (inactive).
In the case of `Cc1nc2nc(Cc3ccccc3)[nH]n2c(=O)c1Cl` it was > 4 mM (inactive).
Under `Cc1nnc(SCC(=O)N2CCc3ccccc32)s1` stands > 4 mM (inactive); under `CC(C)c1c(O)c(-c2cc3c(c(C(C)C)c2O)CCC2C(C)(C)CCC[C@]32C)cc2c1CCC1C(C)(C)CCC[C@]21C` (stereo partly specified), > 4 mM (inactive).
In the case of `COc1cc2c(cc1OC)[C@@H]1C(=O)c3ccc(OC)c(CC=C(C)C)c3O[C@@H]1CO2` it was > 4 mM (inactive).
As for `N#CCSc1nnc2ccc3ccccc3n12`, the Kd is > 4 mM (inactive).
Consider `O=P1(O)c2ccccc2Nc2ccccc21`, for which the Kd was > 4 mM (inactive).
In the case of `Cc1ccc(Nc2nc(N)nc(CC#N)n2)cc1` it was > 4 mM (inactive).
In the case of `O=C(CSc1ncn[nH]1)c1ccccc1`, the Kd is > 4 mM (inactive).
As to `O=C1NC(=O)C(=Cc2ccccc2)C(=O)N1`, the Kd was > 4 mM (inactive).
Under `CC(=O)NC1C(=O)Nc2c(C)cc(C)cc21` (stereo unspecified) stands > 4 mM (inactive); under `CCOC(=O)c1csc(C2COc3ccccc3O2)n1` (stereo unspecified), > 4 mM (inactive); under `CCOC(=O)c1c(SC)nc(=O)[nH]c1C`, > 4 mM (inactive).
In the case of `CC1(C)CC2(C)N(N)C(=O)CN2C(=S)N1` (stereo unspecified) it was > 4 mM (inactive); in that of `N[C@@H](Cc1ccc(O)c(O)c1)C(=O)O`, > 4 mM (inactive).
Consider `CN1CCN(c2ccc(N)cc2)CC1`, for which the Kd was > 4 mM (inactive).
For the compound `CCC(/C=C/[C@@H](C)[C@H]1CCC2C3CC=C4C[C@@H](O)CC[C@]4(C)C3CC[C@@]21C)C(C)C` (stereo partly specified), the Kd is > 4 mM (inactive).
In the case of `CC(=O)c1c(C)nn(CC(=O)O)c1C` it was > 4 mM (inactive); in that of `O=c1ccn(Cc2ccccc2)c(=O)[nH]1`, > 4 mM (inactive).
As for `CSc1nc(NC(C)C)nc(N2CCOCC2)n1`, the Kd is > 4 mM (inactive).
With `O=C(c1ccccc1)c1cncc(Br)c1`, the Kd is > 4 mM (inactive).
Under `CC(=O)NC(C)(C)C1CC=C(C)/C(=N\O)C1` (stereo unspecified) stands > 4 mM (inactive); under `Nc1nc(CSc2ncn(-c3ccccc3)n2)cs1`, > 4 mM (inactive); under `O=C(O)c1ccc(-c2ccccn2)s1`, > 4 mM (inactive).
In the case of `O=c1[nH]cc(S(=O)(=O)N2CCc3ccccc32)c(=O)[nH]1` it was > 4 mM (inactive); in that of `COc1ccc2c(c1)[nH]c1c(C)nccc12`, > 4 mM (inactive).
Under `C=CC(C1=CC(=O)C=CC1=O)c1ccccc1` (stereo unspecified) stands > 4 mM (inactive).
As to `Nc1cccc(C(=O)c2ccccc2)c1`, the Kd is > 4 mM (inactive).
In the case of `Nc1cccnc1Oc1ccc(F)cc1F` it was > 4 mM (inactive).
`Cn1c(NCc2ccccc2O)nc2ccccc21`: the Kd is > 4 mM (inactive).
For the compound `O=C1CN(c2ccccc2)CC(=O)N1`, the Kd is > 4 mM (inactive).
Consider `CC(O)C(=O)N/N=C/c1ccccc1` (stereo unspecified), for which the Kd was > 4 mM (inactive).
For `COc1ccc2ccc(=O)oc2c1CC=C(C)C`, the Kd was > 4 mM (inactive).
In the case of `CC(=O)c1cnc2nc(C(F)(F)F)nn2c1C` it was > 4 mM (inactive).
Under `COC(=O)c1ccc2nccnc2c1` stands > 4 mM (inactive).
As to `COc1cc2c(cc1OC)[C@@H]1C(=O)c3ccc4c(c3O[C@@H]1CO2)C=CC(C)(C)O4`, the Kd was > 4 mM (inactive).
With `Nc1nc(-c2ccc(O)cc2)cs1`, the Kd is > 4 mM (inactive).
In the case of `COc1ccccc1NC(=O)C1CCC(=O)N1` (stereo unspecified) it was > 4 mM (inactive); in that of `Cc1nn(CC(=O)Nc2ccccc2)c(=O)c2ccccc12`, > 4 mM (inactive).
Under `CCOC(=O)c1cnc2cc(C)nn2c1C` stands > 4 mM (inactive); under `COC(=O)c1cccc2cc[nH]c12`, > 4 mM (inactive); under `Nc1cccc2nonc12`, > 4 mM (inactive).
Turning to `O=C(O)CCC(=O)c1c[nH]c2ccccc12`, the Kd is > 4 mM (inactive).
Take `O=C(O)CC(O)c1nc2ccccc2[nH]1` (stereo unspecified): the Kd was > 4 mM (inactive).
In the case of `COc1cc(OC)c2c(=O)c(O)c(-c3ccc(OC)c(OC)c3)oc2c1` it was > 4 mM (inactive); in that of `CC(=O)Oc1ccc(O)cc1`, > 4 mM (inactive).
